Earlier results as cited in patent US9999632B2, “Inhibition of pancreatic lipase” (RD Biomed Limited, priority 2009, dated 2018).

Details: patients treated with Orlistat; cited from earlier work

Compound: CCCCCCCCCCC[C@@H](C[C@@H]1OC(=O)[C@H]1CCCCCC)OC(=O)[C@H](CC(C)C)NC=O [Orlistat, tetrahydrolipstatin]
- patients affected by adverse effects (steatorrhoea, bloating, oily spotting, faecal urgency, faecal incontinence): up to 40 % of patients
